Where two headings read alike, the source gives them in different places.
Legend:
MAP4K4 = MAP4K4 (Homo sapiens, UniProt O95819); experiment: MAP4K4 kinase assay (in-house); assay type: biochemical
From the text: Signaling pathways mediating anticancer activity. […] We established the MAP4K4 kinase assay in-house and confirmed that the compounds are indeed potent MAP4K4 inhibitors.

BT549 = experiment: Breast cancer cell line growth inhibition; assay type: cell-based; conditions: Homo sapiens, BT-549; BT549, triple negative; read-out: IC50 against breast cancer cell lines
From the text: (§1) Generally, their potency is positively correlated with MAP4K4 expression in cancer cell lines.

HS578T = experiment: Breast cancer cell line growth inhibition; assay type: cell-based; conditions: Homo sapiens, Hs-578T, triple negative, read-out: IC50 against breast cancer cell lines
From the text: as §1

MCF-7 = experiment: Breast cancer cell line growth inhibition; assay type: cell-based; conditions: Homo sapiens, MCF7; MCF-7, ER (+); read-out: IC50 against breast cancer cell lines
From the text: as §1

MDA-MB-231 = experiment: Breast cancer cell line growth inhibition; assay type: cell-based; conditions: Homo sapiens; MDA-MB-231, triple negative; read-out: IC50 against breast cancer cell lines
From the text: as §1

T47D = experiment: Breast cancer cell line growth inhibition; assay type: cell-based; conditions: Homo sapiens, ER (+), read-out: IC50 against breast cancer cell lines
From the text: as §1

DU-145 = experiment: Prostate cancer cell proliferation assay; assay type: cell-based; conditions: Homo sapiens; DU-145, 72 hours; read-out: IC50 against prostate cancer cell lines
From the text: (§2) The dose-response curves of cell growth inhibition were consistent.
(§3) Cell proliferation assays.

LNCaP = experiment: Prostate cancer cell proliferation assay; assay type: cell-based; conditions: Homo sapiens, 72 hours, read-out: IC50 against prostate cancer cell lines
From the text: as §2, §3

PC-3 = experiment: Prostate cancer cell proliferation assay; assay type: cell-based; conditions: Homo sapiens; PC-3, 72 hours; read-out: IC50 against prostate cancer cell lines
From the text: as §2, §3

[1] = In vivo pharmacokinetic study, oral formulations; conditions: mouse, plasma, 60 mg/kg, mice
Method: In vivo pharmacokinetic (PK) studies; oral bioavailability. We conducted pre-formulation studies and selected different oral formulations for mice PK studies to explore the effect of formulation on drug absorption.
The PK profiles of representative compounds (60 mg/kg) were determined in different oral formulations (HPC and PTTW) with groups of three mice per time point.

[2] = Metabolic stability in liver microsomes; assay type: in vitro ADME; conditions: NADPH, 10 μM
Method: The compounds are experimentally predicted to have a longer half-life in humans. We conducted metabolic stability studies in human and mouse liver microsomes. Metabolic stability in pooled human or mouse liver microsomes, in the presence of NADPH, was measured with 10 μM compound over 60 min.

[3] = system: caspase-3 and -7 activities; experiment: Caspase-Glo 3/7 apoptosis assay; assay type: cell-based; conditions: 20 nM
From the text: Efficacy-related endpoints. We conducted an in-depth mechanism of action study in androgen-sensitive (LNCaP) and -insensitive (PC-3 and DU-145) prostate cancer cell lines.
Apoptosis assay. The Caspase-Glo® 3/7 Assay (Promega), a homogeneous, luminescent assay that measures caspase-3 and -7 activities, was used to access apoptosis induction.

A498 = experiment: Activity against cancer cell lines; assay type: cell-based; conditions: Homo sapiens
From the text: (§4) Exemplary data is shown below.

ACHN = experiment: Activity against cancer cell lines; assay type: cell-based; conditions: Homo sapiens
From the text: as §4

ADRRES = experiment: Activity against cancer cell lines; assay type: cell-based
From the text: as §4

CAKI1 = experiment: Activity against cancer cell lines; assay type: cell-based; conditions: Homo sapiens, CAKI-1
From the text: as §4

HCT15 = experiment: Activity against cancer cell lines; assay type: cell-based; conditions: Homo sapiens, HCT-15
From the text: as §4

HL60 = experiment: Activity against cancer cell lines; assay type: cell-based
From the text: as §4

LOXIMVI = experiment: Activity against cancer cell lines; assay type: cell-based; conditions: Homo sapiens, LOX IMVI
From the text: as §4

M14 = experiment: Activity against cancer cell lines; assay type: cell-based; conditions: Homo sapiens
From the text: as §4

MCF7 = experiment: Activity against cancer cell lines; assay type: cell-based; conditions: Homo sapiens
From the text: as §4

MDAMB435 = experiment: Activity against cancer cell lines; assay type: cell-based; conditions: Homo sapiens, MDA-MB-435
From the text: as §4

MOLT4 = experiment: Activity against cancer cell lines; assay type: cell-based; conditions: Homo sapiens, MOLT-4
From the text: as §4

NCIH522 = experiment: Activity against cancer cell lines; assay type: cell-based; conditions: Homo sapiens, NCI-H522
From the text: as §4

OVCAR4 = experiment: Activity against cancer cell lines; assay type: cell-based
From the text: as §4

OVCAR8 = experiment: Activity against cancer cell lines; assay type: cell-based
From the text: as §4

RXF393 = experiment: Activity against cancer cell lines; assay type: cell-based; conditions: Homo sapiens, RXF 393
From the text: as §4

SF295 = experiment: Activity against cancer cell lines; assay type: cell-based; conditions: Homo sapiens, SF-295
From the text: as §4

SF539 = experiment: Activity against cancer cell lines; assay type: cell-based; conditions: Homo sapiens, SF-539
From the text: as §4

SKMEL2 = experiment: Activity against cancer cell lines; assay type: cell-based; conditions: Homo sapiens, SK-MEL-2
From the text: as §4

SKMEL5 = experiment: Activity against cancer cell lines; assay type: cell-based; conditions: Homo sapiens, SK-MEL-5
From the text: as §4

SNB75 = experiment: Activity against cancer cell lines; assay type: cell-based
From the text: as §4

UO31 = experiment: Activity against cancer cell lines; assay type: cell-based; conditions: Homo sapiens, UO-31
From the text: as §4

CCRFCEM = experiment: Activity against cancer cell lines; assay type: cell-based
From the text: as §4

Chain of MAP4K4 (O95819 whole entry): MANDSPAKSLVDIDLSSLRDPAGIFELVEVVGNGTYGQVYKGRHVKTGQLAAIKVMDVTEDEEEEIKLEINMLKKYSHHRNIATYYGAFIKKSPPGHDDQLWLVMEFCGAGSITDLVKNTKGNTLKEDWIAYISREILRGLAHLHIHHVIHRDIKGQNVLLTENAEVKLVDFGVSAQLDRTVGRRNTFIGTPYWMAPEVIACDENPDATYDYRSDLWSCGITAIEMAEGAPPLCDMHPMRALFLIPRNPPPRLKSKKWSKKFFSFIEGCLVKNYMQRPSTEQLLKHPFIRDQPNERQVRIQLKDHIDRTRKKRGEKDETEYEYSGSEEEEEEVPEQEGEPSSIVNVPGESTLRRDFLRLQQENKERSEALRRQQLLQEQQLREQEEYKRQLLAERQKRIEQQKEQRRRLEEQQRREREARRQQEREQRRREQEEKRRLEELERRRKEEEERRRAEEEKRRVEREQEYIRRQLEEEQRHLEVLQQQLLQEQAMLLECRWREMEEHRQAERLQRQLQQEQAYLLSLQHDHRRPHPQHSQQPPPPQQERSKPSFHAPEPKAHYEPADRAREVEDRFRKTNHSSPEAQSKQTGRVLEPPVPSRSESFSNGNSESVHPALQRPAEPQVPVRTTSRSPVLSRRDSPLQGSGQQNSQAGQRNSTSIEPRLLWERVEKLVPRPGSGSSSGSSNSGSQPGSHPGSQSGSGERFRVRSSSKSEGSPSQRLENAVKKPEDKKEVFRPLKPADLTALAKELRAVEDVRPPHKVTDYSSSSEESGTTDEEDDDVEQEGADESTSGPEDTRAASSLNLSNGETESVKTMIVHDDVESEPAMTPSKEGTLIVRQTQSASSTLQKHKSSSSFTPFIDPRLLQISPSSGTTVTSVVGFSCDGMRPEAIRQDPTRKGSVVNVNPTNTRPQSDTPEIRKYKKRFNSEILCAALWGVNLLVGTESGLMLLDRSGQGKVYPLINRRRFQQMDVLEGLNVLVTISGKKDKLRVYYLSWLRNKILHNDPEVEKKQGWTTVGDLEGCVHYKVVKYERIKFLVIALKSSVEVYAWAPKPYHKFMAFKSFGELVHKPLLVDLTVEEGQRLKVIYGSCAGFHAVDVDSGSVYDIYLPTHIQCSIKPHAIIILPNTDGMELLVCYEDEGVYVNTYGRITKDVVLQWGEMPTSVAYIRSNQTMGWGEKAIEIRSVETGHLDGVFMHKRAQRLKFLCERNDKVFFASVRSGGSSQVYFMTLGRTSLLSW

COc1ccc2[nH]c(C(=O)c3ccc4[nH]nc(C)c4c3)cc2c1 [Cmpd 18, (5-methoxy-1H-indol-2-yl)(3-methyl-1H-indazol-5-yl)methanone]
IC50 (MAP4K4): 0.14 µM | IC50 (BT549): 0.012 µM | IC50 (HS578T): 0.013 µM | IC50 (MCF-7): 0.083 µM | IC50 (MDA-MB-231): 0.014 µM | IC50 (T47D): 0.029 µM | IC50 (DU-145): 0.023 µM | IC50 (LNCaP): 0.016 µM | IC50 (PC-3): 0.011 µM | concentration at 0.5 h ([1]; oral 60 mg/kg in 0.5% HPC): 0.319 ± 0.106 µg/mL | concentration at 4 h ([1]; oral 60 mg/kg in 0.5% HPC): 0.033 ± 0.021 µg/mL | concentration at 8 h ([1]; oral 60 mg/kg in 0.5% HPC): 0.0347 ± 0.0188 µg/mL | concentration at 24 h ([1]; oral 60 mg/kg in 0.5% HPC): 0.0013 ± 0.0023 µg/mL | concentration at 0.5 h ([1]; oral 60 mg/kg in PTTW): 0.798 ± 0.204 µg/mL | concentration at 4 h ([1]; oral 60 mg/kg in PTTW): 0.0755 ± 0.0193 µg/mL | concentration at 8 h ([1]; oral 60 mg/kg in PTTW): 0.0217 ± 0.0111 µg/mL | concentration at 24 h ([1]; oral 60 mg/kg in PTTW): 0.0154 ± 0.0072 µg/mL | % of Parent Compound Remaining vs T = 0 min ([2]; human liver microsomes, 15 min): 72.9% | % of Parent Compound Remaining vs T = 0 min ([2]; human liver microsomes, 30 min): 63.1% | % of Parent Compound Remaining vs T = 0 min ([2]; human liver microsomes, 60 min): 53.0% | % of Parent Compound Remaining vs T = 0 min ([2]; mouse liver microsomes, 15 min): 31.6% | % of Parent Compound Remaining vs T = 0 min ([2]; mouse liver microsomes, 30 min): 9.9% | % of Parent Compound Remaining vs T = 0 min ([2]; mouse liver microsomes, 60 min): 1.0% | apoptosis induction ([3]; 24 hours treatment): significantly induced apoptosis | apoptosis induction ([3]; 48 hours treatment): more profound apoptotic effect

COc1ccc2[nH]c(C(=O)c3ccc4[nH]ccc4c3)cc2c1 [Cmpd 1, (1H-indol-5-yl)(5-methoxy-1H-indol-2-yl)methanone]
IC50 (MAP4K4): 0.16 µM | IC50 (A498): 0.052 µM | IC50 (ACHN): 0.0057 µM | IC50 (ADRRES): 0.027 µM | IC50 (CAKI1): 0.023 µM | IC50 (HCT15): 0.027 µM | IC50 (HL60; HL60): 0.024 µM | IC50 (HL60; Homo sapiens, HL-60, HL60): 0.035 µM | IC50 (LOXIMVI): 0.014 µM | IC50 (M14): 0.038 µM | IC50 (MCF7): 0.059 µM | IC50 (MDAMB435): 0.021 µM | IC50 (MOLT4): 0.053 µM | IC50 (NCIH522): 0.032 µM | IC50 (OVCAR4; Homo sapiens, OVCAR-4, OVCAR4): 0.09 µM | IC50 (OVCAR4; OVCAR4): 0.056 µM | IC50 (OVCAR8; Homo sapiens, OVCAR-8, OVCAR8): 0.067 µM | IC50 (OVCAR8; OVCAR8): 0.053 µM | IC50 (RXF393): 0.038 µM | IC50 (SF295): 0.054 µM | IC50 (SF539): 0.039 µM | IC50 (SKMEL2): 0.063 µM | IC50 (SKMEL5): 0.033 µM | IC50 (SNB75; Homo sapiens, SNB-75, SNB75): 0.042 µM | IC50 (SNB75; SNB75): 0.034 µM | IC50 (UO31): 0.066 µM

COc1cccc2c1C(=O)c1c(O)c3c(c(O)c1C2=O)C[C@@](O)(C(=O)CO)C[C@@H]3O[C@H]1C[C@H](N)[C@H](O)[C@H](C)O1 [Doxorubicin, reference compound]
IC50 (A498): 0.65 µM | IC50 (ACHN): 0.54 µM | IC50 (ADRRES): 11 µM | IC50 (CAKI1): 0.18 µM | IC50 (CCRFCEM): 0.087 µM | IC50 (CCRFCEM; Homo sapiens, CCRF-CEM): 0.047 µM | IC50 (HCT15): 1.3 µM | IC50 (HL60; HL60): 0.13 µM | IC50 (HL60; Homo sapiens, HL-60, HL60): 0.15 µM | IC50 (LOXIMVI): 0.26 µM | IC50 (M14): 0.81 µM | IC50 (MCF7): 0.41 µM | IC50 (MDAMB435): 0.97 µM | IC50 (MOLT4): 0.075 µM | IC50 (NCIH522): 0.5 µM | IC50 (OVCAR4; Homo sapiens, OVCAR-4, OVCAR4): 1.9 µM | IC50 (OVCAR4; OVCAR4): 1.5 µM | IC50 (RXF393): 1 µM | IC50 (SF295): 0.43 µM | IC50 (SF539): 0.39 µM | IC50 (SKMEL2): 0.68 µM | IC50 (SKMEL5): 0.39 µM | IC50 (SNB75; Homo sapiens, SNB-75, SNB75): 0.61 µM | IC50 (SNB75; SNB75): 0.58 µM | IC50 (UO31): 2.5 µM

— patent US10000451B2, “MAP4K4 (HGK) inhibitors” (SRI INTERNATIONAL, priority 2015, dated 2018)
